Reference: patent US5648386A (priority 1990, dated 1997)
“Also recorded” adds a separate entry of the source.

Assays:
[1] = test system: β-receptors of the skeletal musculature; test: β-mimetic effect on skeletal musculature (BOWMAN and NOTT): tension of incompletely tetanically contracting M. soleus of anaesthetized cats i.v.; type: in vivo; conditions: for Reduction in tension in % (x): anaesthetized cats, M. soleus, n=5
Description: (§1) 1. […] They were also compared for their acute toxicity.
The β-mimetic effect on the skeletal musculature was tested using the method of BOWMAN and NOTT (Pharmacol. Rev. 21, 27 (1969)). This investigates the influence on the tension of the incompletely tetanically contracting M. soleus of anaesthetized cats after i.v. administration.

lambs = test: performance enhancing effect in lambs (feed, 6 weeks); type: in vivo, Suffolk×Galway wether lambs; conditions: for Weight of carcass / Final weight / Composition of carcass tissue (without bones): Protein / Feed utilization in g of weight gain per kg of feed / Composition of carcass tissue (without bones): Fat / Weight gain in g per day / Composition of carcass tissue (without bones): Water: 2 mg/kg in feed, 6 weeks; for Starting weight: baseline, control 34.4
From the text: 2. […] At the same time steps were taken to ensure that the lambs were offered at least 10% excess feed during the experimental period. The lambs were then killed and the following parameters were obtained: […]

animals = conditions: U.S. Pat. No. 4,407,819; cited from earlier work
mice = test: acute toxicity in male and female mice i.v.; type: in vivo
Description: as §1
(§2) The acute toxicity was measured in male and female mice weighing between 20 and 25 g after intravenous administration. An LD50 was calculated by […] from the percentage of animals which died within 14 days of being given the substance.

fat cells = test: β-mimetic effect on fat cells: lipolytic effect (free fatty acids in blood) in conscious rabbits i.v.; type: in vivo; conditions: for ED150 (dose which resulted in a 50% increase in the free fatty acid in the blood): conscious rabbits, linear regression, range in parentheses
From the text: as §1
The β-mimetic effect on the fat cells was investigated in terms of a lipolytic effect on conscious rabbits after i.v. administration.

[2] = acute toxicity in male and female mice i.v.; type: in vivo; conditions: mouse, in vivo, iv, male and female mice, death within 14 days, range in parentheses
Description: as §1, §2

[3] = overall comparison of the enantiomers (biological effects, use to risk); type: in vivo; conditions: (-)- vs (+)-cimaterol, words

Row | Structure (SMILES) | Reduction in tension in % (x) ([1]; dose 0.5 μg/kg) [%] | Starting weight (lambs) [kg] | Weight of carcass (lambs; control 22.8, 2 mg/kg) [kg] | Final weight (lambs; control 45.4, 2 mg/kg) [kg] | Composition of carcass tissue (without bones): Protein (lambs; control 140, 2 mg/kg) [g per kg] | Feed utilization in g of weight gain per kg of feed (lambs; control 190, 2 mg/kg) | Composition of carcass tissue (without bones): Fat (lambs; control 248, 2 mg/kg) [g per kg] | Weight gain in g per day (lambs; control 259, 2 mg/kg) [g per day] | Composition of carcass tissue (without bones): Water (lambs; control 501, 2 mg/kg) [g per kg] | ED150 (dose which resulted in a 50% increase in the free fatty acid in the blood) (fat cells) | other results
1 | CC(C)NCC(O)c1ccc(N)c(C#N)c1 (racemic) [Cimaterol, 1-(4'-amino-3'-cyano-phenyl)-2-isopropylaminoethanol, reference compound] | 38.3 | 34.9 |  |  |  |  |  |  |  |  | Weight of carcass (lambs; control 22.8): 24.0 kg; Final weight (lambs; control 45.4): 46.0 kg; Composition of carcass tissue (without bones): Protein (lambs; control 140): 167 g per kg; Feed utilization in g of weight gain per kg of feed (lambs; control 190): 196 g of weight gain per kg of fee; Composition of carcass tissue (without bones): Fat (lambs; control 248): 265 g per kg; Weight gain in g per day (lambs; control 259): 275 g per day; Composition of carcass tissue (without bones): Water (lambs; control 501): 556 g per kg; performance-enhancing effect (animals): performance-enhancing effect
2 | CC(C)NCC(O)c1ccc(N)c(C#N)c1 (single isomer, unassigned; (+)) [(+)-Cimaterol, (+)-1-(4'-Amino-3'-cyano-phenyl)-2-isopropylamino-ethanol] |  | 34.8 | 22.5 | 45.7 | 151 | 184 g of weight gain per kg of fee | 341 | 268 | 501 | 9.770 (7.440-12.700) μg/kg | LD50 (mice; male and female mice, death within 14 days, range in parentheses, 20160 min): 86.3 (80.6-92.3) mg/kg; toxicity of the D-enantiomer compared with the L-enantiomer (mice; mice, words): the same toxicity as the L-enantiomer; Reduction in tension in % (x) ([1]; dose 50.0 μg/kg): 33.7%; doses needed to achieve a 50% increase in the free fatty acids, times greater than those of the corresponding L-enantiomer (fat cells; D- vs L-enantiomer, rabbits): about 100 times
3 | CC(C)NCC(O)c1ccc(N)c(C#N)c1 (single isomer, unassigned; (-)) [(-)-Cimaterol, (-)-1-(4'-Amino-3'-cyano-phenyl)-2-isopropylamino-ethanol] | 42.1 | 34.2 | 24.1 | 48.0 | 177 | 220 g of weight gain per kg of fee | 252 | 324 | 557 | 0.098 (0.078-0.118) μg/kg | LD50 at 336 h [2]: 74.8 mg/kg; times more effective than the corresponding D-enantiomer on the β-receptors of the skeletal musculature ([1]; L- vs D-enantiomer, cats): more than 100 times; carrier of the biological / desired effects of cimaterol [3]: the only carrier of the biological effects of cimaterol; also recorded: the sole carrier of the desired effects
